Assay results: PubChem BioAssay AID789 (SRMLSC, 2007)
Active and inactive are the calls of the source. No rule for the calls is given here.

Legend:
[1] = growth inhibition of apl2Δ yeast, dose response, selectivity assay for post-Golgi transport modulator project, S. cerevisiae, secondary screen, background strain comparison (AID 789); conditions: for IC50: S. cerevisiae background (wild-type parent) strain growth inhibition; for growth inhibition: S. cerevisiae apl2Δ mutant growth inhibition, at 25 µM (top of the series)
[2] = test system: S. cerevisiae apl2Δ mutant growth inhibition; test: as above

Row | SMILES | IC50 [1] | IC50 [2] | growth inhibition [1]
1 | COc1ccc2oc(=O)c(-c3nnc(NCc4ccco4)s3)cc2c1 | > 10 µM | > 10 µM (inactive) | 
2 | O=C(NCc1ccco1)C(c1cccs1)N(C(=O)Cc1cccs1)c1ccccc1 (stereo not given) | > 10 µM | > 10 µM (inactive) | 
3 | Cc1[nH]nc(N=CC2=C(O)CC(C)(C)CC2=O)c1-c1ccc(Cl)cc1 |  | > 10 µM (inactive) | 
4 | Cc1c(Cc2ccccc2)c(=O)oc2c(C)c(OCc3nn[nH]n3)ccc12 | > 10 µM | > 10 µM (inactive) | 
5 | CC(NC(=O)CSc1nc2c(cc1C#N)CN(C)CC2)c1ccccc1 (stereo not given) | > 10 µM | > 10 µM (inactive) | 
6 | CCn1c(SCC(=O)N2CCCc3ccccc32)nnc1-c1ccco1 | > 10 µM | > 10 µM (inactive) | 
7 | O=C(NCc1ccccc1)NS(=O)(=O)c1ccccc1Cl | > 10 µM | > 10 µM (inactive) | 
8 | C=CCc1ccc(OCC(O)CN2CCC(Cc3ccccc3)CC2)c(OC)c1 (stereo not given) | 19.1 µM | 12.5 µM | 
9 | Nc1cc(N)c(OCC(F)(F)F)cc1OCC(F)(F)F | > 10 µM | > 10 µM (inactive) | 
10 | O=C(Nc1nnc(C2CC2)o1)c1ccc(S(=O)(=O)N2CCCc3ccccc32)cc1 | 3.17 µM |  | 30.1% (inactive)
11 | CCCCCCCCNc1ncnc2ccccc12 | 14.8 µM |  | 
12 | CCOc1nc(SCCOc2ccccc2)nc(N(C)C)n1 |  | > 10 µM (inactive) | 
13 | Cc1cc(C(C)(C)C)ccc1OCCN1CCCC1 | > 10 µM | > 10 µM (inactive) | 
14 | CC(C)c1ccc(C2C3CSCC=C3C(C#N)=C(N)C2(C#N)C#N)cc1 (stereo not given) | 0.843 µM | 1.84 µM (inactive) | 
15 | CCOC(=O)Cn1cc(C=O)c2ccccc21 | > 10 µM | > 10 µM (inactive) | 
16 | CCOC(=O)c1c(NC(=O)CN2CCCCC2)sc2c1CCC(C=O)=C2Cl | > 10 µM | > 10 µM (inactive) | 
17 | C/C(CCC12CC3CC(CC(C3)C1)C2)=N\NC(N)=S | 5.28 µM | 4.94 µM | 
18 | O=C(c1ccc(Cl)cc1Cl)N1CCC(c2nc3c(nnn3Cc3ccco3)c(=O)[nH]2)CC1 | > 10 µM | > 10 µM (inactive) | 
19 | N#CC1=C(N)NC(SCc2ccc(F)cc2)=C(C#N)C12CCCCC2 | 16.3 µM | 7.78 µM | 
20 | COc1ccc2c(c1)C(C)=CC(C)(C)N2C(=O)CSc1nnc(-c2ccc(C)cc2)o1 | > 10 µM | > 10 µM (inactive) | 
21 | COc1ccc(C2C3=C(CCCC3=O)Nc3nc(-c4cc(OC)c(OC)c(OC)c4)nn32)cc1OC (stereo not given) | > 10 µM | > 10 µM (inactive) | 
22 | COc1cccc(NC(=O)C2CCCN2C(=O)OCc2ccccc2)c1 (stereo not given) | > 10 µM | > 10 µM (inactive) | 
23 | COc1ccc(CN(C(=O)Cc2cccs2)C(C(=O)NC2CCCC2)c2ccncc2)cc1 (stereo not given) | > 10 µM | > 10 µM (inactive) | 

Row | SMILES | IC50 [1] | IC50 [2] | growth inhibition [1]
24 | Cc1cc2ncn(CC(O)COc3cccc(C(=O)O)c3)c2cc1C (stereo not given) | > 10 µM | > 10 µM (inactive) | 
25 | COc1cc2[nH]c(=S)n(CCCN3CCOCC3)c(=O)c2cc1OC | > 10 µM | > 10 µM (inactive) | 
26 | Cc1cccc2cc(C#N)c(NCCCn3ccnc3)nc12 | > 10 µM | > 10 µM (inactive) | 
27 | OC(c1ccc(Cl)cc1Cl)C(Cc1cccnc1)n1cncn1 (stereo not given) | > 10 µM | > 10 µM (inactive) | 
28 | C=C(C)COc1ccc(-c2ncncc2Oc2ccc(OC)cc2)c(O)c1 | > 10 µM | > 10 µM (inactive) | 
29 | Fc1ccc(-c2noc(C3CCN(Cc4cccnc4)CC3)n2)cc1 | > 10 µM | > 10 µM (inactive) | 
30 | COC(=O)c1ccc(NC(=O)c2cn(-c3ccccc3)nc2-c2ccncc2)cc1 | > 10 µM | > 10 µM (inactive) | 
31 | CCOc1ccc(NC(=O)N(C2CCCCC2)C(C)c2cccnc2)cc1 (stereo not given) |  | 21.5 µM | 
32 | CC(C)COC(=O)c1ccc2c(c1O)C(=O)c1ccccc1C2=O | > 10 µM | > 10 µM (inactive) | 
33 | CC(=O)c1ccc(N2CCN(C(=O)c3ccc(Br)cc3)CC2)c(F)c1 | 6.58 µM |  | 
34 | O=C(OCn1ncc(Br)c(Br)c1=O)c1c(F)cccc1F |  | > 10 µM (inactive) | 
35 | CS(=O)(=O)N1CCC(C(=O)NCCN2CCN(Cc3ccccc3)CC2)CC1 | > 10 µM | > 10 µM (inactive) | 
36 | CCc1n[nH]c2c1/C(=N\O)CC(C)(C)C2 | > 10 µM | > 10 µM (inactive) | 
37 | COc1ccc(NC(=S)NC(NC(=O)c2ccc(Cl)cc2Cl)C(Cl)(Cl)Cl)c([N+](=O)[O-])c1 (stereo not given) | > 10 µM | > 10 µM (inactive) | 
38 | O=S(=O)(Cc1ccccc1Cl)N1CCN(Cc2ccc3c(c2)OCO3)CC1 |  | > 10 µM (inactive) | 
39 | CC(=O)Nc1ccccc1NS(=O)(=O)c1ccc(Cl)cc1 | > 10 µM | > 10 µM (inactive) | 
40 | CCOCCCNC(=O)c1cc2sc(Cl)cc2n1CC | > 10 µM | > 10 µM (inactive) | 
41 | CCCCC(c1nnnn1Cc1ccco1)N1CCN(c2nc3ccccc3s2)CC1 (stereo not given) | 3.9 µM |  | 
42 | Cc1ccc(S(=O)(=O)N(CC(=O)N2CCC(C(N)=O)CC2)c2cccc(C(F)(F)F)c2)cc1 | > 10 µM | > 10 µM (inactive) | 
43 | O=C(N/N=C/c1ccc([N+](=O)[O-])o1)c1cc(-c2cccc(Br)c2)nc2ccccc12 | 4.65 µM |  | 42.1% (inactive)
44 | O=C(Nc1nc(-c2ccccn2)cs1)c1ncc(Cl)c(Cl)c1Cl | 13.3 µM | 19.3 µM (inactive) | 
45 | Cc1ccc(N2CCN(S(=O)(=O)N3CCCCCC3)CC2)cc1Cl | > 10 µM | > 10 µM (inactive) | 
46 | Clc1ccc2[nH]c3c(NCC4CCCO4)ncnc3c2c1 (stereo not given) | > 10 µM | > 10 µM (inactive) | 

Row | SMILES | IC50 [1] | IC50 [2] | growth inhibition [1]
47 | CCc1ccc(C(=O)/C=C/c2ccc([N+](=O)[O-])o2)cc1 | 20.7 µM | > 10 µM (inactive) | 
48 | CC(C)Cc1[nH]c(=O)c(C#N)c2c1CCC2 | > 10 µM | > 10 µM (inactive) | 
49 | C/C(=N\N=C(/N)SC1CC(=O)N(c2ccc(Cl)c(Cl)c2)C1=O)c1cccs1 (stereo not given) | 5.98 µM | > 10 µM (inactive) | 
50 | O=S(=O)(c1ccc(Cl)cc1)N1CCN(C2CCN(Cc3ccccc3)CC2)CC1 | > 10 µM | > 10 µM (inactive) | 
51 | Cc1ccc(C)c(C(=O)NCc2ccncc2)c1 | > 10 µM | > 10 µM (inactive) | 
52 | CC(C)c1ccc(C(=O)CSc2n[nH]c(-c3ccncc3)n2)cc1 |  | 17 µM | 
53 | COc1ccc(-c2nnc(CSc3nc4ccccc4c(=O)n3C)o2)cc1OC | > 10 µM | > 10 µM (inactive) | 
54 | CCOc1cc(/C=C\[N+](=O)[O-])ccc1OCC(=O)Nc1ccccc1C | > 10 µM | > 10 µM (inactive) | 
55 | NC(=O)c1ccsc1NC(=O)c1nc(-c2ccccc2)n(-c2ccccc2)n1 | > 10 µM | > 10 µM (inactive) | 
56 | Cc1ccc(OCC(O)CN2CCN(Cc3ccc4c(c3)OCO4)CC2)c(C)c1 (stereo not given) | > 10 µM |  | 
57 | N=c1nc(N)nc2n1NC(c1ccc(F)cc1)=CS2 | > 10 µM | > 10 µM (inactive) | 
58 | CCOc1cccc(C(=O)Nc2cccnc2)c1 | > 10 µM | > 10 µM (inactive) | 
59 | CCOC(=O)c1ccc(NC(=O)c2cn(-c3ccccc3)nc2-c2ccncc2)cc1 | 11.5 µM |  | 18.6% (inactive)
60 | O=C(C1CCCN(S(=O)(=O)c2ccc(Cl)cc2)C1)N(Cc1cccs1)C1CC1 (stereo not given) |  | > 10 µM (inactive) | 
61 | O=S1(=O)C=C(Sc2nc3ccccc3s2)c2ccccc21 |  | > 10 µM (inactive) | 
62 | O=C(Nc1nnc(-c2ccc3c(c2)CCCC3)o1)c1ccccc1 |  | > 10 µM (inactive) | 
63 | O=C(CN1CCN(c2ccccn2)CC1)Nc1ccc(Oc2ccccc2)cc1 |  | > 10 µM (inactive) | 
64 | COc1ccc(OCCSc2nnc3sc4ccccc4n23)cc1 |  | > 10 µM (inactive) | 
65 | O=C(OCn1ncc(Cl)c(Cl)c1=O)c1cccc(C(F)(F)F)c1 | 3.51 µM |  | 
66 | CC12CCC(c3c(C(=O)Nc4nccs4)nn(-c4ccccc4)c31)C2(C)C (stereo not given) |  | > 10 µM (inactive) | 
67 | C=CCc1ccc(OCCCCN2CC(C)OC(C)C2)c(OC)c1 (stereo not given) | > 10 µM |  | 34.1% (inactive)
68 | O=C(Nc1nnc(-c2cccs2)o1)c1cccc(C(F)(F)F)c1 |  | > 10 µM (inactive) | 
69 | O=S1(=O)C=C(Sc2nnc(-c3ccccc3)o2)c2ccccc21 |  | > 10 µM (inactive) | 

Row | SMILES | IC50 [1] | IC50 [2] | growth inhibition [1]
70 | O=C(OCn1ncc(Br)c(Br)c1=O)c1ccccc1Cl |  | > 10 µM (inactive) | 
71 | CCCCCOc1ccc(CN2CCOCC2)cc1Cl | > 10 µM |  | 
72 | N#Cc1ccccc1Cn1cc(C(=O)c2cccs2)c2ccccc21 |  | > 10 µM (inactive) | 
73 | O=[N+]([O-])c1cc(Cl)cc(/C=N\Nc2ccccn2)c1O |  | > 10 µM (inactive) | 
74 | CC1CCC(C(C)C)C(OCC(O)CN2CCN(Cc3ccccc3)CC2)C1 (stereo not given) |  | 19.3 µM | 
75 | O=C1c2ccccc2C(=O)c2c1oc(C(F)(F)F)c2C(=O)c1ccccc1 | 2.2 µM |  | 
76 | O=C1C=C(c2ccccc2)C(=O)N1Nc1ccccc1 |  | > 10 µM (inactive) | 
77 | CC(c1nnc(SCn2nnc3ccccc3c2=O)n1-c1ccc(Cl)cc1)N(C)C (stereo not given) |  | > 10 µM (inactive) | 
78 | Cc1cccc(-c2nnc(-c3cccc(NC(=O)Cc4cccs4)c3)o2)c1 | 15.2 µM |  | 
79 | CCCCC(=O)Nc1nc(C)c(-c2csc(Nc3ccc(Cl)cc3)n2)s1 | 6.26 µM |  | 
80 | O=C(Nc1ccccc1)C1=C(O)CC(c2ccco2)CC1=Nc1ccccc1 (stereo not given) | > 10 µM |  | 
81 | N=c1c2c(-c3ccccc3)c(-c3ccccc3)n(Cc3ccco3)c2ncn1Cc1ccccc1 |  | 20.9 µM | 
82 | O=C(NCC(c1cccnc1)N1CCN(c2ccc(F)cc2)CC1)OCc1ccccc1 (stereo not given) |  | 23.4 µM | 
83 | O=C(CC(=O)c1cc(Cl)ccc1O)c1ccccc1 | 12.7 µM |  | 
84 | CC1CN(CCCCOc2ccc(C(C)C)cc2)CC(C)O1 (stereo not given) | > 10 µM |  | 
85 | Cc1ccc(Cl)c(OCCCCN(C)Cc2ccccc2)c1 | > 10 µM |  | 
86 | N[C@@H](Cc1c[nH]c2ccccc12)c1nnc(SCc2ccc(Cl)cc2)o1 | 20.4 µM |  | 
87 | O=C(Nc1nnc(-c2ccccc2)o1)c1ccc(Cl)cc1 | 0.65 µM |  | 40.8% (inactive)
88 | CC1CCN(S(=O)(=O)c2ccc(NC(=O)CCN3C(=O)c4ccccc4C3=O)cc2)CC1 |  | > 10 µM (inactive) | 
89 | CC(Sc1ccsc1[N+](=O)[O-])C(=O)NCCc1ccc(Cl)cc1 (stereo not given) |  | > 10 µM (inactive) | 
